Measured values as given in patent US9981916B2 (Genentech, Inc., priority 2013, dated 2018).

Target: T1, RORc ligand binding domain (Homo sapiens, UniProt P51449)
T1 construct: host or cells: E. coli
T1 sequence (P51449 269-508 limits assumed): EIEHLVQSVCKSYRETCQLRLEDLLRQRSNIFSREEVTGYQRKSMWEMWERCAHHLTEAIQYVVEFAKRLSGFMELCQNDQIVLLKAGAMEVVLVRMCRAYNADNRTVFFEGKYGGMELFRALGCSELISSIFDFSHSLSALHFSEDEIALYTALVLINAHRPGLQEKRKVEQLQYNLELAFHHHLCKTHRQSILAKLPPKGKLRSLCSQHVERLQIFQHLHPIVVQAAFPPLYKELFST
Assay: In vitro RORc ligand binding assay (25-[3H]hydroxycholesterol displacement, filter binding)
Details: 6 nM 25-[3H]hydroxycholesterol, 0.6 ug/mL RORc receptor, 3 h at 25° C.
Outline: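 Filter-binding displacement of 6 nM 25-[3H]hydroxycholesterol from RORc receptor (0.6 ug/mL) in 50 mM HEPES pH 7.4, 150 mM NaCl, 5 mM MgCl2, 1 mM DTT, 0.01% BSA, 5% DMSO; 3 h at 25° C. NSB defined with 1 uM 25-hydroxycholesterol; scintillation counting gave Kiapp, IC50 or % inhibition (screening at 1 and 10 uM).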

Question: Which IC50 does the source give for `CC1(C)[C@H]2CC[C@]1(CNC1COC1)c1nnc(-c3c(F)cccc3F)cc12` [Example 317, N-(((5R,8S)-3-(2,6-difluorophenyl)-9,9-dimethyl-5,6,7,8-tetrahydro-5,8-methanocinnolin-8-yl)methyl)oxetan-3-amine] here?
Answer: 1920 nM

Question: `CCN(C[C@@]12CC[C@@H](c3cc(-c4c(F)cccc4F)nnc31)C2(C)C)C(=O)CS(C)(=O)=O` [Example 318, N-(((5R,8S)-3-(2,6-difluorophenyl)-9,9-dimethyl-5,6,7,8-tetrahydro-5,8-methanocinnolin-8-yl)methyl)-N-ethyl-2-(methylsulfonyl)acetamide] was tested. Which IC50 did it give?
Answer: 33 nM

Question: Which IC50 does the source give for `CN([C@@]12CC[C@@H](c3cc(-c4c(F)cccc4F)nnc31)C2(C)C)S(=O)(=O)C(F)(F)F` [Example 319, N-((5R,8R)-3-(2,6-difluorophenyl)-9,9-dimethyl-5,6,7,8-tetrahydro-5,8-methanocinnolin-8-yl)-1,1,1-trifluoro-N-methylmethanesulfonamide] here?
Answer: 52 nM

Question: How did the IC50 turn out when `CN(C)C(=O)N[C@@]12CC[C@@H](c3cc(-c4c(F)cccc4F)nnc31)C2(C)C` [Example 320, 3-((5R,8R)-3-(2,6-difluorophenyl)-9,9-dimethyl-5,6,7,8-tetrahydro-5,8-methanocinnolin-8-yl)-1,1-dimethylurea] was run?
Answer: 1500 nM

Question: Which IC50 does the source give for `CC(=O)NC(C)(C)[C@@]12CC[C@@H](c3cc(-c4c(F)cccc4F)nnc31)C2(C)C` [Example 321, N-(2-((5R,8S)-3-(2,6-difluorophenyl)-9,9-dimethyl-5,6,7,8-tetrahydro-5,8-methanocinnolin-8-yl)propan-2-yl)acetamide] here?
Answer: 79 nM

Question: For `CC1(C)[C@H]2CC[C@]1(N(CC(F)F)C(=O)CO)c1nnc(-c3c(F)cccc3F)cc12` [Example 322, N-(2,2-difluoroethyl)-N-((5R,8R)-3-(2,6-difluorophenyl)-9,9-dimethyl-5,6,7,8-tetrahydro-5,8-methanocinnolin-8-yl)-2-hydroxyacetamide], which IC50 is on record?
Answer: 1460 nM

Question: How did the IC50 turn out when `CCN(C[C@@]12CC[C@@H](c3cc(-c4c(F)cccc4F)nnc31)C2(C)C)c1cncc(=O)[nH]1` [Example 323, 6-((((5R,8S)-3-(2,6-difluorophenyl)-9,9-dimethyl-5,6,7,8-tetrahydro-5,8-methanocinnolin-8-yl)methyl)(ethyl)amino) pyrazin-2(1H)-one] was run?
Answer: 12 nM

Question: With `C[C@H](O)C(=O)N(CCC#N)C[C@@]12CC[C@@H](c3cc(-c4c(F)cccc4F)nnc31)C2(C)C` [Example 324, (S)-N-(2-cyanoethyl)-N-(((5R,8S)-3-(2,6-difluorophenyl)-9,9-dimethyl-5,6,7,8-tetrahydro-5,8-methanocinnolin-8-yl)methyl)-2-hydroxypropanamide] as the compound, how does the IC50 read?
Answer: 732 nM

Question: With `CN(C)C(=O)N(C)[C@@]12CC[C@@H](c3cc(-c4c(F)cccc4F)nnc31)C2(C)C` [Example 325, 1-((5R,8R)-3-(2,6-difluorophenyl)-9,9-dimethyl-5,6,7,8-tetrahydro-5,8-methanocinnolin-8-yl)-1,3,3-trimethylurea] as the compound, how does the IC50 read?
Answer: 944 nM

Question: With `CC1(C)[C@H]2CC[C@]1(CN1CC(C#N)C1)c1nnc(-c3c(F)cccc3F)cc12` [Example 326, 1-(((5R,8S)-3-(2,6-difluorophenyl)-9,9-dimethyl-5,6,7,8-tetrahydro-5,8-methanocinnolin-8-yl)methyl)azetidine-3-carbonitrile] as the compound, how does the IC50 read?
Answer: 1920 nM

Question: How did the IC50 turn out when `CCOC(=O)c1nnc([C@@]23CC[C@@H](c4cc(-c5c(F)cccc5F)nnc42)C3(C)C)o1` [Example 327, ethyl 5-((5R,8R)-3-(2,6-difluorophenyl)-9,9-dimethyl-5,6,7,8-tetrahydro-5,8-methanocinnolin-8-yl)-1,3,4-oxadiazole-2-carboxylate] was run?
Answer: 1390 nM

Question: How did the IC50 turn out when `CC1(C)[C@@H]2CC[C@@]1(CNCC(F)F)c1nnc(-c3c(F)cccc3F)cc12` [Example 328, N-(((5S,8R)-3-(2,6-difluorophenyl)-9,9-dimethyl-5,6,7,8-tetrahydro-5,8-methanocinnolin-8-yl)methyl)-2,2-difluoroethanamine] was run?
Answer: 74 nM

Question: With `CC1(C)[C@H]2CC[C@]1(COc1cnccn1)c1nnc(-c3c(F)cccc3F)cc12` [Example 329, (5R,8R)-3-(2,6-difluorophenyl)-9,9-dimethyl-8-((pyrazin-2-yloxy)methyl)-5,6,7,8-tetrahydro-5,8-methanocinnoline] as the compound, how does the IC50 read?
Answer: 271 nM

Question: With `CC1(C)[C@H]2CC[C@]1(COc1cncc(=O)[nH]1)c1nnc(-c3c(F)cccc3F)cc12` [Example 330, 6-(((5R,8R)-3-(2,6-difluorophenyl)-9,9-dimethyl-5,6,7,8-tetrahydro-5,8-methanocinnolin-8-yl)methoxy)pyrazin-2(1H)-one] as the compound, how does the IC50 read?
Answer: 1980 nM

Question: `CCNC[C@@]12CC[C@@H](c3cc(-c4c(F)cccc4F)nnc31)C2(C)C` [Example 331, N-(((5R,8S)-3-(2,6-difluorophenyl)-9,9-dimethyl-5,6,7,8-tetrahydro-5,8-methanocinnolin-8-yl)methyl)ethanamine] was tested. Which IC50 did it give?
Answer: 877 nM

Question: For `CC1(C)[C@@H]2CC[C@@]1(C(=O)N1CC(F)(F)C1)c1nnc(-c3ccccc3F)cc12` [Example 332, (3,3-difluoroazetidin-1-yl)((5S,8S)-3-(2-fluorophenyl)-9,9-dimethyl-5,6,7,8-tetrahydro-5,8-methanocinnolin-8-yl)methanone], which IC50 is on record?
Answer: 1400 nM

Question: For `CC1(C)[C@@H]2CC[C@@]1(C(=O)NC1CCC1)c1nnc(-c3ccccc3F)cc12` [Example 333, (5S,8S)-N-cyclobutyl-3-(2-fluorophenyl)-9,9-dimethyl-5,6,7,8-tetrahydro-5,8-methanocinnoline-8-carboxamide], which IC50 is on record?
Answer: 1500 nM

Question: How did the IC50 turn out when `CNC(=O)[C@]12CC[C@H](c3cc(-c4ccccc4F)nnc31)C2(C)C` [Example 334, (5S,8S)-3-(2-fluorophenyl)-N,9,9-trimethyl-5,6,7,8-tetrahydro-5,8-methanocinnoline-8-carboxamide] was run?
Answer: 2100 nM

Question: For `Cc1c[nH]nc1C1CN(C(=O)[C@]23CC[C@H](c4cc(-c5ccccc5F)nnc42)C3(C)C)C1` [Example 335, ((5S,8S)-3-(2-fluorophenyl)-9,9-dimethyl-5,6,7,8-tetrahydro-5,8-methanocinnolin-8-yl)(3-(4-methyl-1H-pyrazol-3-yl)azetidin-1-yl)methanone], which IC50 is on record?
Answer: 2800 nM

Question: How did the IC50 turn out when `Cc1nnc([C@@]23CC[C@@H](c4cc(Oc5c(F)cccc5F)nnc42)C3(C)C)o1` [Example 336, 2-((5R,8R)-3-(2,6-difluorophenoxy)-9,9-dimethyl-5,6,7,8-tetrahydro-5,8-methanocinnolin-8-yl)-5-methyl-1,3,4-oxadiazole] was run?
Answer: 49 nM

Question: With `CC1(C)[C@H]2CC[C@]1(C(=O)N1CCC1)c1nnc(Oc3c(F)cccc3F)cc12` [Example 337, azetidin-1-yl((5R,8R)-3-(2,6-difluorophenoxy)-9,9-dimethyl-5,6,7,8-tetrahydro-5,8-methanocinnolin-8-yl)methanone] as the compound, how does the IC50 read?
Answer: 540 nM

Question: With `CC1(C)[C@H]2CC[C@]1(COCc1ccccc1)c1nnc(Oc3c(F)cccc3F)cc12` [Example 338, (5R,8R)-8-((benzyloxy)methyl)-3-(2,6-difluorophenoxy)-9,9-dimethyl-5,6,7,8-tetrahydro-5,8-methanocinnoline] as the compound, how does the IC50 read?
Answer: 66 nM

Question: For `CC(=O)OC[C@@]12CC[C@@H](c3cc(Oc4c(F)cccc4F)nnc31)C2(C)C` [Example 339, ((5R,8R)-3-(2,6-difluorophenoxy)-9,9-dimethyl-5,6,7,8-tetrahydro-5,8-methanocinnolin-8-yl)methyl acetate], which IC50 is on record?
Answer: 100 nM

Question: Which IC50 does the source give for `CCN(C[C@]12CC[C@H](c3cc(-c4c(F)cccc4F)nnc31)C2(C)C)C(=O)CCC(N)=O` [Example 342, N1-(((5S,8R)-3-(2,6-difluorophenyl)-9,9-dimethyl-5,6,7,8-tetrahydro-5,8-methanocinnolin-8-yl)methyl)-N1-ethylsuccinamide] here?
Answer: 28 nM

Question: With `CCN(C[C@]12CC[C@H](c3cc(-c4c(F)cccc4F)nnc31)C2(C)C)C(=O)CCNC(N)=O` [Example 343, N-(((5S,8R)-3-(2,6-difluorophenyl)-9,9-dimethyl-5,6,7,8-tetrahydro-5,8-methanocinnolin-8-yl)methyl)-N-ethyl-3-ureidopropanamide] as the compound, how does the IC50 read?
Answer: 32 nM

Question: With `CCN(C[C@]12CC[C@H](c3cc(-c4c(F)cccc4F)nnc31)C2(C)C)C(=O)CCC(=O)N(C)C` [Example 344, N1-(((5S,8R)-3-(2,6-difluorophenyl)-9,9-dimethyl-5,6,7,8-tetrahydro-5,8-methanocinnolin-8-yl)methyl)-N1-ethyl-N4,N4-dimethylsuccinamide] as the compound, how does the IC50 read?
Answer: 31 nM

Question: `CCN(C[C@@]12CC[C@@H](c3cc(-c4c(F)cccc4F)nnc31)C2(C)C)S(=O)(=O)CCC(F)(F)F` [Example 345, N-(((5R,8S)-3-(2,6-difluorophenyl)-9,9-dimethyl-5,6,7,8-tetrahydro-5,8-methanocinnolin-8-yl)methyl)-N-ethyl-3,3,3-trifluoropropane-1-sulfonamide] was tested. Which IC50 did it give?
Answer: 11 nM
